From PubChem BioAssay AID2060627 (Molecular Pharmacology Branch, DTP, NCI, 2025)

Tested on: 156681-154-R-J1-PDC complex spheroid viability
Assay: Anticancer human tumor 156681-154-R-J1-PDC patient-derived melanoma cell line growth inhibition [CLK]
Details: for IC50: curve of first compound; for viability, T/C: stronger effect = lower value
How it was run: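 Patient-derived tumor cells grown as complex spheroids with HUVEC endothelial cells and mesenchymal stem cells, treated with drug combinations. Concentrations descend in half-log steps from near clinical Cmax, or from 10 microM if Cmax unknown.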

[1] = second compound 0.0316 µM, first compound 0.0316 µM
[2] = second compound 0.0316 µM, first compound 0.1 µM
[3] = second compound 0.0316 µM, first compound 0.316 µM
[4] = second compound 0.0316 µM, first compound 1 µM
[5] = second compound 0.0316 µM, first compound 3.16 µM
[6] = second compound 0.0316 µM, first compound 10 µM
[7] = second compound 0.1 µM, first compound 0.0316 µM
[8] = second compound 0.1 µM, first compound 0.1 µM
[9] = second compound 0.1 µM, first compound 0.316 µM
[10] = second compound 0.1 µM, first compound 1 µM
[11] = second compound 0.1 µM, first compound 3.16 µM
[12] = second compound 0.1 µM, first compound 10 µM
[13] = second compound 0.316 µM, first compound 0.0316 µM
[14] = second compound 0.316 µM, first compound 0.1 µM
[15] = second compound 0.316 µM, first compound 0.316 µM
[16] = second compound 0.316 µM, first compound 1 µM
[17] = second compound 0.316 µM, first compound 3.16 µM
[18] = second compound 0.316 µM, first compound 10 µM
[19] = second compound 1 µM, first compound 0.0316 µM
[20] = second compound 1 µM, first compound 0.1 µM
[21] = second compound 1 µM, first compound 0.316 µM
[22] = second compound 1 µM, first compound 1 µM
[23] = second compound 1 µM, first compound 3.16 µM
[24] = second compound 1 µM, first compound 10 µM
[25] = second compound 3.16 µM, first compound 0.0316 µM
[26] = second compound 3.16 µM, first compound 0.1 µM
[27] = second compound 3.16 µM, first compound 0.316 µM
[28] = second compound 3.16 µM, first compound 1 µM
[29] = second compound 3.16 µM, first compound 3.16 µM
[30] = second compound 3.16 µM, first compound 10 µM
[31] = second compound 10 µM, first compound 0.0316 µM
[32] = second compound 10 µM, first compound 0.1 µM
[33] = second compound 10 µM, first compound 0.316 µM
[34] = second compound 10 µM, first compound 1 µM
[35] = second compound 10 µM, first compound 3.16 µM
[36] = second compound 10 µM, first compound 10 µM
[37] = second compound 0.0316 µM, first compound 0.00316 µM
[38] = second compound 0.0316 µM, first compound 0.01 µM
[39] = second compound 0.1 µM, first compound 0.00316 µM
[40] = second compound 0.1 µM, first compound 0.01 µM
[41] = second compound 0.316 µM, first compound 0.00316 µM
[42] = second compound 0.316 µM, first compound 0.01 µM
[43] = second compound 1 µM, first compound 0.00316 µM
[44] = second compound 1 µM, first compound 0.01 µM
[45] = second compound 3.16 µM, first compound 0.00316 µM
[46] = second compound 3.16 µM, first compound 0.01 µM
[47] = second compound 10 µM, first compound 0.00316 µM
[48] = second compound 10 µM, first compound 0.01 µM
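Further: spheroids exposed to the agents for seven days.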
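Wherever viability, T/C is given: 100% = DMSO vehicle control viability.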

CC(=O)O[C@H]1C(=O)[C@@]2(C)[C@H]([C@H](OC(=O)c3ccccc3)[C@]3(O)C[C@H](OC(=O)[C@H](O)[C@@H](NC(=O)c4ccccc4)c4ccccc4)C(C)=C1C3(C)C)[C@]1(OC(C)=O)CO[C@@H]1C[C@@H]2O + CN1CCN(c2cc(C(=O)Nc3cc4cc(-c5cnn(C)c5)ccc4cn3)ccn2)CC1
IC50 (second compound 0.0316 µM): < 31.6 nM
IC50 (second compound 0.1 µM): < 31.6 nM
IC50 (second compound 0.316 µM): < 31.6 nM
IC50 (second compound 1 µM): < 31.6 nM
IC50 (second compound 3.16 µM): < 31.6 nM
IC50 (second compound 10 µM): < 31.6 nM
viability, T/C [1]: 19.4%
viability, T/C [2]: 13.1%
viability, T/C [3]: 18.9%
viability, T/C [4]: 16.5%
viability, T/C [5]: 23.6%
viability, T/C [6]: 28.9%
viability, T/C [7]: 17.6%
viability, T/C [8]: 14.6%
viability, T/C [9]: 15.4%
viability, T/C [10]: 12.5%
viability, T/C [11]: 16.3%
viability, T/C [12]: 24.3%
viability, T/C [13]: 15.1%
viability, T/C [14]: 21.1%
viability, T/C [15]: 13.8%
viability, T/C [16]: 13%
viability, T/C [17]: 14.8%
viability, T/C [18]: 16.8%
viability, T/C [19]: 0.09%
viability, T/C [20]: 0.13%
viability, T/C [21]: 0.13%
viability, T/C [22]: 0.34%
viability, T/C [23]: 0.12%
viability, T/C [24]: 0.13%
viability, T/C [25]: 0.09%
viability, T/C [26]: 0.74%
viability, T/C [27]: 0.35%
viability, T/C [28]: 0.08%
viability, T/C [29]: 0.23%
viability, T/C [30]: 0.22%
viability, T/C [31]: 0.09%
viability, T/C [32]: 0.7%
viability, T/C [33]: 0.46%
viability, T/C [34]: 0.52%
viability, T/C [35]: 0.61%
viability, T/C [36]: 0.3%

CCc1c2c(nc3ccc(O)cc13)-c1cc3c(c(=O)n1C2)COC(=O)[C@]3(O)CC + CN1CCN(c2cc(C(=O)Nc3cc4cc(-c5cnn(C)c5)ccc4cn3)ccn2)CC1
IC50 (second compound 0.0316 µM): < 3.16 nM
IC50 (second compound 0.1 µM): < 3.16 nM
IC50 (second compound 0.316 µM): < 3.16 nM
IC50 (second compound 1 µM): < 3.16 nM
IC50 (second compound 3.16 µM): < 3.16 nM
IC50 (second compound 10 µM): < 3.16 nM
viability, T/C [37]: 42.5%
viability, T/C [38]: 14.9%
viability, T/C [1]: 15%
viability, T/C [2]: 16.9%
viability, T/C [3]: 17.2%
viability, T/C [4]: 4.31%
viability, T/C [39]: 24.5%
viability, T/C [40]: 15.2%
viability, T/C [7]: 12.1%
viability, T/C [8]: 16.4%
viability, T/C [9]: 13.9%
viability, T/C [10]: 2.11%
viability, T/C [41]: 12.3%
viability, T/C [42]: 12.3%
viability, T/C [13]: 14.7%
viability, T/C [14]: 5.42%
viability, T/C [15]: 1.97%
viability, T/C [16]: 1.05%
viability, T/C [43]: 0.13%
viability, T/C [44]: 0.25%
viability, T/C [19]: 0.33%
viability, T/C [20]: 2.85%
viability, T/C [21]: 2.44%
viability, T/C [22]: 0.97%
viability, T/C [45]: 0.1%
viability, T/C [46]: 2.44%
viability, T/C [25]: 1.86%
viability, T/C [26]: 0.73%
viability, T/C [27]: 1.39%
viability, T/C [28]: 0.88%
viability, T/C [47]: 0.64%
viability, T/C [48]: 3.44%
viability, T/C [31]: 2.3%
viability, T/C [32]: 1.35%
viability, T/C [33]: 2.63%
viability, T/C [34]: 2.01%

Cn1ncnc1[C@H]1c2n[nH]c(=O)c3cc(F)cc(c23)N[C@@H]1c1ccc(F)cc1 + CN1CCN(c2cc(C(=O)Nc3cc4cc(-c5cnn(C)c5)ccc4cn3)ccn2)CC1
IC50 (second compound 0.0316 µM): > 100 nM
IC50 (second compound 0.1 µM): > 100 nM
IC50 (second compound 0.316 µM): < 0.316 nM
IC50 (second compound 1 µM): < 0.316 nM
IC50 (second compound 3.16 µM): < 0.316 nM
IC50 (second compound 10 µM): < 0.316 nM
viability, T/C (second compound 0.0316 µM, first compound 0.000316 µM): 88.8%
viability, T/C (second compound 0.0316 µM, first compound 0.001 µM): 91.7%
viability, T/C [37]: 90.5%
viability, T/C [38]: 94.8%
viability, T/C [1]: 81.8%
viability, T/C [2]: 68.7%
viability, T/C (second compound 0.1 µM, first compound 0.000316 µM): 89%
viability, T/C (second compound 0.1 µM, first compound 0.001 µM): 84.5%
viability, T/C [39]: 75.2%
viability, T/C [40]: 85.7%
viability, T/C [7]: 66.1%
viability, T/C [8]: 59.6%
viability, T/C (second compound 0.316 µM, first compound 0.000316 µM): 18.9%
viability, T/C (second compound 0.316 µM, first compound 0.001 µM): 23.7%
viability, T/C [41]: 18.3%
viability, T/C [42]: 17.5%
viability, T/C [13]: 20.4%
viability, T/C [14]: 18.6%
viability, T/C (second compound 1 µM, first compound 0.000316 µM): 0.18%
viability, T/C (second compound 1 µM, first compound 0.001 µM): 2.71%
viability, T/C [43]: 0.14%
viability, T/C [44]: 0.17%
viability, T/C [19]: 2.08%
viability, T/C [20]: 0.69%
viability, T/C (second compound 3.16 µM, first compound 0.000316 µM): 0.14%
viability, T/C (second compound 3.16 µM, first compound 0.001 µM): 1.63%
viability, T/C [45]: 1.37%
viability, T/C [46]: 0.09%
viability, T/C [25]: 1.93%
viability, T/C [26]: 0.67%
viability, T/C (second compound 10 µM, first compound 0.000316 µM): 0.13%
viability, T/C (second compound 10 µM, first compound 0.001 µM): 3.21%
viability, T/C [47]: 2.34%
viability, T/C [48]: 0.36%
viability, T/C [31]: 4.58%
viability, T/C [32]: 1.43%

Nc1ccn(C2OC(CO)C(O)C2(F)F)c(=O)n1 (stereo not given) + CN1CCN(c2cc(C(=O)Nc3cc4cc(-c5cnn(C)c5)ccc4cn3)ccn2)CC1
IC50 (second compound 0.0316 µM): < 31.6 nM
IC50 (second compound 0.1 µM): < 31.6 nM
IC50 (second compound 0.316 µM): < 31.6 nM
IC50 (second compound 1 µM): < 31.6 nM
IC50 (second compound 3.16 µM): < 31.6 nM
IC50 (second compound 10 µM): < 31.6 nM
viability, T/C [1]: 16.4%
viability, T/C [2]: 16.1%
viability, T/C [3]: 20.3%
viability, T/C [4]: 14.8%
viability, T/C [5]: 12%
viability, T/C [6]: 16.9%
viability, T/C [7]: 19%
viability, T/C [8]: 13.4%
viability, T/C [9]: 12.9%
viability, T/C [10]: 12.8%
viability, T/C [11]: 10.9%
viability, T/C [12]: 12.8%
viability, T/C [13]: 13.8%
viability, T/C [14]: 14%
viability, T/C [15]: 10.1%
viability, T/C [16]: 11.7%
viability, T/C [17]: 16.5%
viability, T/C [18]: 9.83%
viability, T/C [19]: 0.16%
viability, T/C [20]: 0.82%
viability, T/C [21]: 0.37%
viability, T/C [22]: 1.65%
viability, T/C [23]: 0.78%
viability, T/C [24]: 1.59%
viability, T/C [25]: 0.16%
viability, T/C [26]: 1.54%
viability, T/C [27]: 0.42%
viability, T/C [28]: 0.1%
viability, T/C [29]: 4.55%
viability, T/C [30]: 0.67%
viability, T/C [31]: 0.15%
viability, T/C [32]: 2.7%
viability, T/C [33]: 0.29%
viability, T/C [34]: 4.06%
viability, T/C [35]: 1.19%
viability, T/C [36]: 2.59%

O=c1[nH]cc(F)c(=O)[nH]1 + CN1CCN(c2cc(C(=O)Nc3cc4cc(-c5cnn(C)c5)ccc4cn3)ccn2)CC1
IC50 (second compound 0.0316 µM): 7520 nM
IC50 (second compound 0.1 µM): 4680 nM
IC50 (second compound 0.316 µM): < 31.6 nM
IC50 (second compound 1 µM): < 31.6 nM
IC50 (second compound 3.16 µM): < 31.6 nM
IC50 (second compound 10 µM): < 31.6 nM
viability, T/C [1]: 106%
viability, T/C [2]: 104%
viability, T/C [3]: 96.2%
viability, T/C [4]: 113%
viability, T/C [5]: 74.2%
viability, T/C [6]: 42%
viability, T/C [7]: 99.3%
viability, T/C [8]: 77.6%
viability, T/C [9]: 83.7%
viability, T/C [10]: 84.6%
viability, T/C [11]: 57.8%
viability, T/C [12]: 34.9%
viability, T/C [13]: 17.3%
viability, T/C [14]: 21.2%
viability, T/C [15]: 21.1%
viability, T/C [16]: 20.9%
viability, T/C [17]: 20.4%
viability, T/C [18]: 16.1%
viability, T/C [19]: 0.17%
viability, T/C [20]: 1.7%
viability, T/C [21]: 0.17%
viability, T/C [22]: 1.14%
viability, T/C [23]: 3.07%
viability, T/C [24]: 0.39%
viability, T/C [25]: 0.09%
viability, T/C [26]: 3.26%
viability, T/C [27]: 2.64%
viability, T/C [28]: 0.08%
viability, T/C [29]: 3.66%
viability, T/C [30]: 5.79%
viability, T/C [31]: 0.09%
viability, T/C [32]: 1.51%
viability, T/C [33]: 0.76%
viability, T/C [34]: 2.73%
viability, T/C [35]: 1.68%
viability, T/C [36]: 3.54%
